Assay results published in patent publication US12291503B2, “Crystalline form of compound, method for preparing the same, pharmaceutical composition and use” (Beijing Konruns Pharmaceutical Co., Ltd., priority 2019, dated 2025).
pIC50: −log10 of the molar value. Where two headings read alike, the source gives them in different places. Each block holds one compound with its values, some of them ahead of it.

Tests used:
[1] = Accelerated stability test of the crystalline form M and the crystalline form F (40±2° C., RH 75±5%, open petri dish); assay type: physicochemical; conditions: for Change in purity in 3 months' accelerated stability test: before and after grinding/pulverization
Procedure: Accelerated stability test: the crystalline form M of the compound 1 was contained in a petri dish, which was placed in an open manner in a closed container (desiccator) with a relative humidity of 75±5%; the desiccator was placed in an incubator at 40±2° C. for 3 months, and small samples were taken out at 0, 1, 2, 3 months respectively for detection.
Accelerated stability test: the crystalline form F of the compound 1 was contained in a petri dish, which was put in an open manner in a closed container (desiccator) with a relative humidity of 75±5%; the desiccator was placed in an incubator at 40±2° C. for 3 months; small samples were taken out at 0, 1, 2 and 3 months respectively for detection.

[2] = Bioavailability analysis (pharmacokinetics) of crystalline forms in mice; assay type: in vivo; design: AUClast / AUCInf: concentration or dose not given beside the values; conditions: gavage, suspension in CMC-Na, mean
Procedure: Drug samples of different crystalline forms of the compound 1 were added to a solution of 1 CMC-Na respectively to prepare suspensions, which were administrated to mice by gavage. Drug samples of the different crystalline forms of the compound 1 were prepared into solutions in DMSO/PEG400/water and administered intravenously to mice. After drug administration, blood samples were collected from the dorsal vein of foot at different time points. After anticoagulation with heparin sodium, plasma was extracted by centrifugation. Plasma samples were analyzed by LC-MS/MS to obtain plasma drug concentrations. Pharmacokinetic parameters were calculated by WinNonlin (Phoenix™) The results of the bioavailability analysis for the crystalline form AB, the crystalline form M, and the crystalline form F are presented in Table 6.

[3] = Accelerated stability test of the crystalline form AB (40±2° C., RH 75%±5%, vials sealed and open); assay type: physicochemical; conditions: for Purity (HPLC method) Open / Purity (HPLC method) Sealed: 40±2° C., RH 75%±5%
Procedure: Accelerated stability test: the compound 1 was contained in vials, and these vials in sealed and open manners respectively were placed in closed containers (desiccators) with a relative humidity of 75%±5%; the desiccators were placed in an incubator at a temperature of 40±2° C. for 7 months; small samples were taken out at 0, 1, 2, 7 months respectively for detection.

AXL = target: T1, AXL (Homo sapiens, UniProt P30530); assay: IC50 against AXL; assay type: biochemical
T1 sequence (P30530 26-894): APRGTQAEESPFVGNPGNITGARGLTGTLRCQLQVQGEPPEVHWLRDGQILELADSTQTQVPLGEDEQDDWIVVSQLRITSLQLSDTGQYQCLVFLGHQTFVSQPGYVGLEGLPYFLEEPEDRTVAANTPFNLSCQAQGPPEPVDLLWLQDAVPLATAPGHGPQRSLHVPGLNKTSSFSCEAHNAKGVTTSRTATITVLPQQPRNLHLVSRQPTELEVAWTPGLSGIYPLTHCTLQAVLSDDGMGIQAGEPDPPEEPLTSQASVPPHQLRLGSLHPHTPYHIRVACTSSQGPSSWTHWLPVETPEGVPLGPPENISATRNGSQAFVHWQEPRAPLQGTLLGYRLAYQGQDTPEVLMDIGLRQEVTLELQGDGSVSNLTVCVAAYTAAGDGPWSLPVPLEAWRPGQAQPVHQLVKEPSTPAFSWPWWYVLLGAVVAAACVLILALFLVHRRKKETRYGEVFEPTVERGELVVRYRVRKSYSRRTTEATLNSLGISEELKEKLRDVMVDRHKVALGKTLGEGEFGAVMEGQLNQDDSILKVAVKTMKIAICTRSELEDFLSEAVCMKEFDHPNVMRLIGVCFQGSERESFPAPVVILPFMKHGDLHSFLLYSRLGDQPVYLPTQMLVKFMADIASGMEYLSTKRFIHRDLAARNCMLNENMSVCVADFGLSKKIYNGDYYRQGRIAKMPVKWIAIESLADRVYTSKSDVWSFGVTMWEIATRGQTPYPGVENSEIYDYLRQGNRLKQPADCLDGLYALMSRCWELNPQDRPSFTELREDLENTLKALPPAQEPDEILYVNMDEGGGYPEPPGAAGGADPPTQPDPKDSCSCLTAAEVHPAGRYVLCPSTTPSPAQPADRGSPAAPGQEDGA

VEGF-R2 = VEGF-R2 (Homo sapiens, UniProt P35968); assay: IC50 against VEGF-R2; assay type: biochemical
MOLM-13 cells = assay: Human acute myeloid leukemia subcutaneous xenograft tumor model (MOLM-13); assay type: in vivo, mice
Description: Mice were inoculated subcutaneously with MOLM-13 cells and a human acute myeloid leukemia subcutaneous xenograft tumor model was established. After 14 days of intragastric administration of the crystalline form AB to animals, tumors were taken and tumor volume data were collected.

NCI-H1703 cells = assay: Lung cancer subcutaneous xenotransplantation tumor model (NCI-H1703); assay type: in vivo, mice; conditions: for Tumor Inhibition Rate %: intragastric, 28 days, below line 'Micronization'
Description: NCIH-1703 cells were inoculated subcutaneously in mice to establish a lung cancer subcutaneous xenotransplantation tumor model. After 28 days of intragastric administration of the crystalline form AB to animals, tumors were taken and tumor volume data were collected.

[4] = 1 month, open, 40±2° C., RH 75±5%
[5] = 2 months, open, 40±2° C., RH 75±5%
[6] = 3 months, open, 40±2° C., RH 75±5%

Sequence of VEGF-R2 (P35968 20-1356): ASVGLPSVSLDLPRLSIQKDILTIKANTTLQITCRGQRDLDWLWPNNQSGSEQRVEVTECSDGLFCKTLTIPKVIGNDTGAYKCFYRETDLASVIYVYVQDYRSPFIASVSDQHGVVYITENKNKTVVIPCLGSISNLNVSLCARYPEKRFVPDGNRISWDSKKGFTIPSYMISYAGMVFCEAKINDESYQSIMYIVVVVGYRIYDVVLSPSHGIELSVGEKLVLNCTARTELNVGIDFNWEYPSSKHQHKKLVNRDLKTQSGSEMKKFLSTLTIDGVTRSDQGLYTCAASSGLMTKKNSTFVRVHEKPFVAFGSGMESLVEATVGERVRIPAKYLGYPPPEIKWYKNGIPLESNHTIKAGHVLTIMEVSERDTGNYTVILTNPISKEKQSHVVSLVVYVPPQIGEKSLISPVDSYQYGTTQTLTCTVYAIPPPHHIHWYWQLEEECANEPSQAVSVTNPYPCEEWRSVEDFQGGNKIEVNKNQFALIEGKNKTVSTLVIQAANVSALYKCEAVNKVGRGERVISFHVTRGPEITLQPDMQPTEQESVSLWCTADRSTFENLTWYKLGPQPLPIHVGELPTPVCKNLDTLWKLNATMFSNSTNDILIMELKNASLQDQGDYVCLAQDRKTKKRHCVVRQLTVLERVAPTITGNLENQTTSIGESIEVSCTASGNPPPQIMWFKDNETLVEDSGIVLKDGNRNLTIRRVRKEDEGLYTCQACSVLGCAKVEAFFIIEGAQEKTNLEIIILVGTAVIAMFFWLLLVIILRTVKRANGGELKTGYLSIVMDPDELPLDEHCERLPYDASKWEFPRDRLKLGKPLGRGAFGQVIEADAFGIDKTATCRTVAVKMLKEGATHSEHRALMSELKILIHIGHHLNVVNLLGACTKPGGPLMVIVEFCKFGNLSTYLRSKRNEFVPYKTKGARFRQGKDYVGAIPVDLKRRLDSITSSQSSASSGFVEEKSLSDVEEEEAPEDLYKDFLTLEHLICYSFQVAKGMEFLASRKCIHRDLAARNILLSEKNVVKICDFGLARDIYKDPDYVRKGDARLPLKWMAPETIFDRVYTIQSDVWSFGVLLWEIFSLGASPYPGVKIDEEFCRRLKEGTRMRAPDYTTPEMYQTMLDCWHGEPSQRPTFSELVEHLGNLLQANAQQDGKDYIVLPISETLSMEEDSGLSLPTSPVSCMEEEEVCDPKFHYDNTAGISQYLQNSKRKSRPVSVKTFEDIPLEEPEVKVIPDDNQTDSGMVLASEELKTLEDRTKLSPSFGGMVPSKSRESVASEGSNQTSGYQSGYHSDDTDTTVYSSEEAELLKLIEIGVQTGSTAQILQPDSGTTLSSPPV

Purity (HPLC method) After grinding ([1]; 0 month): 99.22%
Purity (HPLC method) Before grinding ([1]; 0 month): 99.21%
Purity (HPLC method) After grinding [1, 4]: 99.37%
Purity (HPLC method) Before grinding [1, 4]: 99.36%
Purity (HPLC method) After grinding [1, 5]: 99.17%
Purity (HPLC method) Before grinding [1, 5]: 99.16%
Purity (HPLC method) After grinding [1, 6]: 99.19%
Purity (HPLC method) Before grinding [1, 6]: 99.19%
Change in purity in 3 months' accelerated stability test [1]: substantially no change in purity
AUCInf [2]: 1110 ng·h/mL
AUC_% Extrap [2]: 39%
AUClast [2]: 581 ng·h/mL
AUClast/D [2]: 58.1 ng·h/mL per mg/kg
Cmax [2]: 200 ng/mL
MRT [2]: 5.65 h
T1/2 [2]: 3.61 h
Tmax [2]: 0.917 h
SMILES: COc1cc2c(Oc3ccc(NC(=O)C4(C(=O)Nc5ccc(F)cc5)CC4)cc3F)ccnc2cc1OCCCCCC(=O)O [crystalline form M, 6-[[4-[2-fluoro-4-[[1-[(4-fluorophenyl)aminoformyl]cyclopropanecarbonyl]amino]phenoxy]-6-methoxy-7-quinolyl]oxy] hexanoic acid]

Purity (HPLC method) Open ([3]; 1 month): 99.36%
Purity (HPLC method) Sealed ([3]; 1 month): 99.32%
Purity (HPLC method) Open ([3]; 2 months): 99.35%
Purity (HPLC method) Sealed ([3]; 2 months): 99.34%
Purity (HPLC method) Open ([3]; 7 months): 99.36%
Purity (HPLC method) Sealed ([3]; 7 months): 99.32%
Stability (conclusion in words) ([3]; accelerated stability test, 7 months): good stability
Purity (HPLC method) ([3]; storage time 0 month): 99.35%
pIC50 (AXL): 9.62
pIC50 (VEGF-R2): 9.42
median effective dose EC50 (MOLM-13 cells; intragastric, 14 days): 1.5 mg/kg
AUCInf [2]: 2414 ng·h/mL
AUC_% Extrap [2]: 1.19%
AUClast [2]: 2399 ng·h/mL
AUClast/D [2]: 240 ng·h/mL per mg/kg
Cmax [2]: 930 ng/mL
MRT [2]: 1.91 h
T1/2 [2]: 0.86 h
Tmax ([2]; mouse, plasma, po, 10 mg/kg, read-out: Tmax): 1.33 h
SMILES: COc1cc2c(Oc3ccc(NC(=O)C4(C(=O)Nc5ccc(F)cc5)CC4)cc3F)ccnc2cc1OCCCCCC(=O)O [crystalline form AB, 6-[[4-[2-fluoro-4-[[1-[(4-fluorophenyl)aminoformyl]cyclopropanecarbonyl]amino]phenoxy]-6-methoxy-7-quinolyl]oxy] hexanoic acid]
Tumor Inhibition Rate % (MOLM-13 cells; 1.5 mg/kg, intragastric, 14 days): 51.5%
Tumor growth (MOLM-13 cells; 3 mg/kg): significantly inhibited tumor growth
Tumor Inhibition Rate % (MOLM-13 cells; 3 mg/kg, intragastric, 14 days): 81.9%
Tumor growth (MOLM-13 cells; 6 mg/kg or 6.25 mg/kg): inhibited tumor growth, and the tumor disappeared in some mice on day 14 after the administration
Tumor Inhibition Rate % (MOLM-13 cells; 6 mg/kg, intragastric, 14 days): 96.7%
Tumor Inhibition Rate % (MOLM-13 cells; 6.25 mg/kg, intragastric, 14 days): 95.6%
Tumor growth (NCI-H1703 cells; 6.25 mg/kg): significantly inhibit tumor growth
Tumor Inhibition Rate % (NCI-H1703 cells; 6.25 mg/kg): 87.0%
Tumor growth (NCI-H1703 cells; 12.5 mg/kg): significantly inhibit tumor growth and tumor regression was observed for some mice
Tumor growth (NCI-H1703 cells; 12.5 mg/kg, 25 mg/kg and 50 mg/kg): significantly inhibited tumor growth and the number of tumor regression cases presented a gradual increase
Tumor Inhibition Rate % (NCI-H1703 cells; 12.5 mg/kg): 94.7%
Tumor Inhibition Rate % (NCI-H1703 cells; 25 mg/kg): 98.5%
Tumor Inhibition Rate % (NCI-H1703 cells; 50 mg/kg): 99.2%

Purity (HPLC method) After grinding ([1]; 0 month): 99.13%
Purity (HPLC method) Before grinding ([1]; 0 month): 99.13%
Purity (HPLC method) After grinding [1, 4]: 99.32%
Purity (HPLC method) Before grinding [1, 4]: 99.33%
Purity (HPLC method) After grinding [1, 5]: 99.07%
Purity (HPLC method) Before grinding [1, 5]: 99.09%
Purity (HPLC method) After grinding [1, 6]: 99.06%
Purity (HPLC method) Before grinding [1, 6]: 99.07%
Change in purity in 3 months' accelerated stability test [1]: substantially no change in purity
AUCInf [2]: 675 ng·h/mL
AUC_% Extrap [2]: 22.7%
AUClast [2]: 505 ng·h/mL
AUClast/D [2]: 50.5 ng·h/mL per mg/kg
Cmax [2]: 201 ng/mL
MRT [2]: 3.05 h
T1/2 [2]: 1.7 h
Tmax [2]: 1.5 h
SMILES: COc1cc2c(Oc3ccc(NC(=O)C4(C(=O)Nc5ccc(F)cc5)CC4)cc3F)ccnc2cc1OCCCCCC(=O)O [crystalline form F, 6-[[4-[2-fluoro-4-[[1-[(4-fluorophenyl)aminoformyl]cyclopropanecarbonyl]amino]phenoxy]-6-methoxy-7-quinolyl]oxy] hexanoic acid]
